Source: patent US11891365B2, “3-alkyl-4-amido-bicyclic [4,5,0] hydroxamic acids as HDAC inhibitors” (Valo Health, Inc., priority 2015, dated 2024)

Target: T1, Full length human recombinant HDAC6 protein (Homo sapiens, UniProt Q9UBN7)
T1 sequence (Q9UBN7 1-1215): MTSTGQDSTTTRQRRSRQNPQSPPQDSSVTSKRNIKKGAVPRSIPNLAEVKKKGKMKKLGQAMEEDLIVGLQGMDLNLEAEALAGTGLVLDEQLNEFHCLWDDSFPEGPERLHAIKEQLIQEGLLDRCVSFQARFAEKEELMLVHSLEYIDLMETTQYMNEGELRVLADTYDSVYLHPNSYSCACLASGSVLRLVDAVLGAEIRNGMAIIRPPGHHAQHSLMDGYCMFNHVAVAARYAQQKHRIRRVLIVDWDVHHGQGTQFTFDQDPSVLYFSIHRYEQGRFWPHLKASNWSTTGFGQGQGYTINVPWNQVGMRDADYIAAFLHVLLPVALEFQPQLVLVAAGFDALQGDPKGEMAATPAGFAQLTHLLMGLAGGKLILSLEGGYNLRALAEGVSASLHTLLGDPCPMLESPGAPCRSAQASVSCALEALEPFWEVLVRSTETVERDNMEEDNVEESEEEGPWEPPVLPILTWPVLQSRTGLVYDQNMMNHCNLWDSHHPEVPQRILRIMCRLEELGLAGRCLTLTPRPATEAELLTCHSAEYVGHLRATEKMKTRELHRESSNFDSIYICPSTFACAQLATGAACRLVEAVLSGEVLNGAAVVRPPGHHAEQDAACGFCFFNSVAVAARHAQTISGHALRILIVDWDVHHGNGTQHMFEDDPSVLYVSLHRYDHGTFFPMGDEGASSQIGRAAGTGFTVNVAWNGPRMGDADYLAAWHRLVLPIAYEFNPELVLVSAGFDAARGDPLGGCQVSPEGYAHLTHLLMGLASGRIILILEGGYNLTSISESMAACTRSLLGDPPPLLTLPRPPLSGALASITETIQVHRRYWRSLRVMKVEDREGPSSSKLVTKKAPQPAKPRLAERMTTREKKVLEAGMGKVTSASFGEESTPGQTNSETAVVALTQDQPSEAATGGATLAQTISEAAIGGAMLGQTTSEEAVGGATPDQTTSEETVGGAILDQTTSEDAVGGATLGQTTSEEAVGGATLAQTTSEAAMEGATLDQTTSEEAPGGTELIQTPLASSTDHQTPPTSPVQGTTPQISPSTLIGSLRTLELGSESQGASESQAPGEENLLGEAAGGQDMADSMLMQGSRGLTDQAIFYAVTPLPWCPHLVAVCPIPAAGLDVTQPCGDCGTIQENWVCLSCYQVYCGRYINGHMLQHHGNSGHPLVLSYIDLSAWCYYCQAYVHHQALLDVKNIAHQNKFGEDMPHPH
Test: In vitro histone deacetylase assay: enzymatic HDAC6 electrophoretic mobility shift assay
Type: biochemical
Details: 1 nM enzyme, 2 μM peptide substrate RHKK(Ac)-NH2, 25° C., 12 concentrations; read-out: Inhibitory Concentration (IC50) Values against HDAC6, Activity Range

SMILES	IC50 [nM]
CC(C)C1OCCC1C(=O)N1Cc2ccc(C(=O)NO)cc2OC[C@@H]1C (stereo partly drawn) [(3S)-N-hydroxy-4-(2-isopropyltetrahydrofuran-3-carbonyl)-3-methyl-2,3,4,5-tetrahydrobenzo[f][1,4]oxazepine-8-carboxamide]	≤ 100
O=C(NO)c1ccc2c(c1)OCCN(C(=O)C1CCC3(CCNCC3)CC1)C2 [N-hydroxy-4-(3-azaspiro[5.5]undecane-9-carbonyl)-2,3,4,5-tetrahydrobenzo[f][1,4]oxazepine-8-carboxamide]	≤ 100
C[C@H]1OCCC[C@@H]1C(=O)N1Cc2ccc(C(=O)NO)cc2OC[C@@H]1C [(S)-N-hydroxy-3-methyl-4-((2R,3S)-2-methyltetrahydro-2H-pyran-3-carbonyl)-2,3,4,5-tetrahydrobenzo[f][1,4]oxazepine-8-carboxamide]	≤ 100
COC[C@@H]1CN(C=O)Cc2ccc(C(=O)NO)cc2O1 [(S)-4-formyl-N-hydroxy-2-(methoxymethyl)-2,3,4,5-tetrahydrobenzo[f][1,4]oxazepine-8-carboxamide]	100 to 500
CN(CC(=O)N1CCOc2cc(C(=O)NO)ccc2C1)S(C)(=O)=O [N-hydroxy-4-(N-methyl-N-(methylsulfonyl)glycyl)-2,3,4,5-tetrahydrobenzo[f][1,4]oxazepine-8-carboxamide]	100 to 500
C[C@H]1COc2cc(C(=O)NO)ccc2CN1C(=O)CC(C)(C)O [(S)-N-hydroxy-4-(3-hydroxy-3-methylbutanoyl)-3-methyl-2,3,4,5-tetrahydrobenzo[f][1,4]oxazepine-8-carboxamide]	≤ 100
O=C(NO)c1ccc2c(c1)OCCN(C(=O)C1CC1)C2 [4-(cyclopropanecarbonyl)-N-hydroxy-2,3,4,5-tetrahydrobenzo[f][1,4]oxazepine-8-carboxamide]	100 to 500
C[C@H]1COc2cc(C(=O)NO)ccc2CN1C(=O)[C@H]1CCCOC1 [(S)-N-hydroxy-3-methyl-4-((S)-tetrahydro-2H-pyran-3-carbonyl)-2,3,4,5-tetrahydrobenzo[f][1,4]oxazepine-8-carboxamide]	≤ 100
CC(C)(C)OC(=O)N1CCC2(CC1)CC(C(=O)N1CCOc3cc(C(=O)NO)ccc3C1)c1ccccc12 (stereo not shown) [tert-butyl 3-(8-(hydroxycarbamoyl)-2,3,4,5-tetrahydrobenzo[f][1,4]oxazepine-4-carbonyl)-2,3-dihydrospiro[indene-1,4′-piperidine]-1′-carboxylate]	100 to 500
CC(C)(C(=O)N1CCOc2cc(C(=O)NO)ccc2C1)n1cc(Cl)cn1 [4-(2-(4-chloro-1H-pyrazol-1-yl)-2-methylpropanoyl)-N-hydroxy-2,3,4,5-tetrahydrobenzo[f][1,4]oxazepine-8-carboxamide]	≤ 100
